Source: patent US20240123080A1, “CYTOTOXIC COMPOUNDS AND CONJUGATES THEREOF” (Seagen Inc., priority 2022, published 2024)
Where a SMILES comes first, the peptide text is derived from it. [ ]: non-standard residue; d: D form. The star is where a group is joined. Dolaproine = CO[C@@H]([C@@H]1CCCN1)[C@@H](C)C(=O)O; Dil = CC[C@H](C)[C@H](NC)[C@@H](CC(=O)O)OC; X1 = C[C@@H](N*)[C@@H](O)c1ccccc1; Phe(ol) = N[C@H](CO)Cc1ccccc1; NMeV = CN[C@H](C(=O)O)C(C)C; X2 = CN(C)[C@@H](CO)C(=O)*

Key:
[1] = tested on: A2058; experiment: In vitro cytotoxicity of auristatin ADCs and free drugs (CellTiter-Glo, 96 h); assay type: cell-based; settings: for IC50: Homo sapiens, A2058, 96 h, read-out: IC50, A2058; for IC50, A2058: ADC, 96 h
Protocol: (§1) Cancer cells were counted and plated in 40 μL complete growth media in 384-well, white-walled tissue culture treated plates (Corning). Cell plates were incubated at 37° C. and with 5% CO2 overnight to allow the cells to equilibrate. Stock solutions containing ADCs or free drugs were serially diluted in RPMI-1640+20% fetal bovine serum (FBS). 10 μL of each concentration were then added to each cell plate in duplicate. Cells were then incubated at 37° C. and with 5% CO2 for 96 hours, upon which, the cell plates were removed from the incubator and allowed to cool to room temperature for 30 minutes prior to analysis. CellTiter-Glo® luminescent assay reagent (Promega Corporation, Madison, WI) was prepared according to Promega's protocol. 10 μL of CellTiter-Glo® were added to assay plates using a Formulatrix Tempest liquid handler (Formulatrix) and the plates were protected from light for 30 minutes at room temperature. The luminescence of the samples was measured using an EnVision Multimode plate reader (Perkin Elmer, Waltham, MA). Raw data were analyzed in Graphpad Prism (San Diego, CA) using a nonlinear, 4-parameter curve fit model [Y=Bottom+(Top-Bottom)/(1+10^((LogEC50−X)*HillSlope))]. Results are reported as IC50 values, which are defined as the concentration of ADC or free drug required to reduce cell viability to 50%.

[2] = tested on: CALU1; experiment: as above; assay type: cell-based; settings: for IC50: Homo sapiens, Calu-1, 96 h, read-out: IC50, CALU1; for IC50, CALU1: ADC, 96 h
Protocol: as §1

[3] = tested on: SKMEL28; experiment: as above; assay type: cell-based; settings: for IC50: Homo sapiens, SK-MEL-28, 96 h, read-out: IC50, SKMEL28
Protocol: as §1

[4] = tested on: SKMEL5; experiment: as above; assay type: cell-based; settings: for IC50: Homo sapiens, SK-MEL-5, 96 h, read-out: IC50, SKMEL5; for IC50, SKMEL5: ADC, 96 h
Protocol: as §1

[5] = LogD, miniaturized 1-octanol/pH 7.4 buffer shake flask method, LC/MS/MS; assay type: physicochemical
Protocol: The LogD (distribution coefficient) of the compounds was measured using a miniaturized 1-octanol/pH 7.4 buffer shake flask method followed by LC/MS/MS analysis. Values were determined by measuring the compound partitioned in the organic and buffered layers.

[6] = tested on: DEL ALCL; experiment: In vitro cytotoxicity, cell proliferation assay (CellTiter-Glo, 96 h); assay type: cell-based; settings: auristatin free drug
Protocol: (§2) The cytotoxicity of free drugs and drug conjugates were measured by a cell proliferation assay employing the protocol described in Promega Corp. Technical Bulletin TB288; and Mendoza et al., 2002, Cancer Res. 62:5485-5488), the methods of which are specifically incorporated by reference herein. Briefly, an aliquot of 40 μl of cell culture containing about 400 cells in medium is deposited in each well of a 384-well, opaque-walled plate. A 10 μL aliquot of free drug or drug conjugate is added to the experimental wells and incubated for 96 h and are then equilibrated to room temperature for approximately 30 minutes whereupon a volume of CellTiter-Glo™ reagent equal to the volume of cell culture medium present in each well is added. The contents are mixed for 2 minutes on an orbital shaker to induce cell lysis and the plate is incubated at room temperature for 10 minutes to stabilize the luminescence signal for recordation.

[7] = tested on: Karpas299 NHL; experiment: as above; assay type: cell-based; settings: Homo sapiens, KARPAS-299, auristatin free drug
Protocol: as §2

[8] = tested on: L540cy HL; experiment: as above; assay type: cell-based; settings: auristatin free drug
Protocol: as §2

[9] = tested on: DEL, Karpas299, and L540cy cell lines; experiment: Average cytotoxicity of DEL, Karpas299, and L540cy cell lines; assay type: cell-based; settings: read-out: Avg IC50 Free drug
Protocol: as §2
Tolerability of an ADC comprising the compound of Example 8 of the present application was compared to tolerability of ADCs comprising the known compounds MMAE and MMAF. Without being bound by theory, the improvements in tolerability are believed to be related to reduced toxicities in the bone marrow and in the liver that are a result of the OH moieties on the compound of Example 8.

[10] = tested on: HCC2218; experiment: In vitro cytotoxicity of auristatin ADCs and free drugs (CellTiter-Glo, 96 h); assay type: cell-based; settings: ADC, Table 8
Protocol: as §1

[11] = tested on: SKBR3; experiment: as above; assay type: cell-based; settings: ADC, Table 8
Protocol: as §1

[12] = tested on: WM2664; experiment: as above; assay type: cell-based; settings: ADC, Table 8
Protocol: as §1

[13] = tested on: cynomolgus monkeys; experiment: In vivo safety study of hCR011 ADCs, hematology and clinical chemistry (Example 97); set-up: species or system cynomolgus monkey; settings: 3 mg/kg, four weekly i.v. doses, DAR=4
Protocol: In vivo safety studies were done in naive cynomolgus monkeys. Studies had 1 or 2 animals/group/timepoint of hCR011-MC-VC-MMAE (DAR=4) or hCR011-Example 60 (DAR=4). Animals were administered four weekly doses of 3, 5, or 10 mg/kg of ADC via intravenous (slow bolus) injection. Baseline measurements for hematology and clinical chemistry parameters were taken from blood drawn at one or two time points prior to dosing, and post-dose timepoints were collected at day 8, and also on days 15 and 29 (hematology only).

[14] = tested on: cynomolgus monkeys; experiment: In vivo toxicology study of hCR011 ADCs at 5 mg/kg (Example 98); set-up: species or system cynomolgus monkey; settings: DAR=4
Protocol: In vivo toxicology studies were done in naive cynomolgus monkeys. Studies had 2 animals/group/timepoint of hCR011-MC-VC-MMAE (DAR=4) or hCR011-Example 60 (DAR=4). Animals were administered four weekly doses of 5 mg/kg of ADC via intravenous (slow bolus) injection.

Compound	IC50 [1]	IC50 [2]	IC50 [3]	IC50 [4]	logD [5]	IC50 [6]	IC50 [7]	IC50 [8]	IC50 [9]	further results
CC[C@H](C)[C@@H]([C@@H](CC(=O)N1CCC[C@H]1[C@H](OC)[C@@H](C)C(=O)N[C@H](CO)Cc1ccccc1)OC)N(C)C(=O)[C@@H](NC(=O)[C@H](CO)N(C)C)C(C)C [Ex. 8 (compound 1.1)] (X2-V[Dil][Dolaproine][Phe(ol)])	2 nM	5 nM	4 nM	2 nM	–	–	–	–	–	–
CC[C@H](C)[C@@H]([C@@H](CC(=O)N1CCC[C@H]1[C@H](OC)[C@@H](C)C(=O)N[C@H](CO)Cc1ccccc1)OC)N(C)C(=O)[C@@H](NC(=O)[C@H](CO)N(C)C)C(C)C [Example 8] (X2-V[Dil][Dolaproine][Phe(ol)])	–	–	–	–	1.6	0.7 nM	1.4 nM	6.6 nM	2.9 nM	–
CC[C@H](C)[C@@H]([C@@H](CC(=O)N1CCC[C@H]1[C@H](OC)[C@@H](C)C(=O)N[C@H](C)[C@@H](O)c1ccccc1)OC)N(C)C(=O)[C@@H](NC(=O)[C@@H](NC)C(C)C)C(C)C [MMAE, monomethyl auristatin E, reference compound] (H-[NMeV]V[Dil][Dolaproine]-X1)	0.3 nM	0.6 nM	0.4 nM	0.2 nM	1.9	0.05 nM	0.1 nM	0.1 nM	0.2 nM	–
CC[C@H](C)[C@@H]([C@@H](CC(=O)N1CCC[C@H]1[C@H](OC)[C@@H](C)C(=O)N[C@@H](Cc1ccccc1)C(=O)O)OC)N(C)C(=O)[C@@H](NC(=O)[C@@H](NC)C(C)C)C(C)C [MMAF, monomethyl auristatin F, reference compound] (H-[NMeV]V[Dil][Dolaproine]F-OH)	–	–	–	–	0.03	44 nM	41 nM	47 nM	44 nM	–
hCR011-MC-VC-MMAE: "conjugate hCR011-MC-VC-MMAE" "(DAR=4)" [reference compound]	–	–	–	–	–	–	–	–	–	IC50, A2058 ([1]; Table 8): 24.3 µg/mL; IC50, A2058 ([1]; Table 9): 11.118 µg/mL; IC50, CALU1 ([2]; Table 8): >30K; IC50, CALU1 ([2]; Table 9): 14251 ng/mL; IC50, HCC2218 [10]: >30K; IC50, SKBR3 [11]: 2.69 µg/mL; IC50, SKMEL28 ([3]; ADC, Table 9, 96 h): 14.02 µg/mL; IC50, SKMEL5 ([4]; Table 8): 0.916 µg/mL; IC50, SKMEL5 ([4]; Table 9): 0.668 µg/mL; IC50, WM2664 [12]: 4.468 µg/mL; neutrophil counts post-administration, FIG. 17 [13]: a decrease relative to baseline on days 8, 15, and 29; neutrophil counts post-dose on Day 8, FIG. 21 [14]: a decrease relative to baseline
